23 compounds from patent publication US11725010B2, “Polyheterocyclic compounds as METTL3 inhibitors” (Storm Therapeutics Limited, priority 2019, dated 2023) can be followed below.

In one assay the test system is KASUMI-1 cells. Description: Kasumi cell assay (CellTiter-Glo cell growth). It counts as cell-based. Conditions: Homo sapiens, Kasumi 1; treated for 120 hours, CellTiter-Glo luminescence; read-out: KASUMI1 cells IC50. As to the method:
Upon treatment, Kasumil cells were incubated for 10 min at RT with the CellTiter-Glo reagent (G7571, Promega). Measurement of the luminescence signal was performed on a microplate reader (Ensight, PerkinElmer).
(In general: ATP-based viability assays read luminescence as a measure of living cells.)

A further assay has as its target METTL3/14 (Homo sapiens (Human), UniProt Q86U44).
Another assay concerns Caov-3 cells. Description: Caov3 CTG proliferation assay. It counts as cell-based. Conditions: Homo sapiens, Caov-3; treated for 120 hours, CellTiter-Glo luminescence; read-out: Caov3 cells IC50. On the procedure:
CTG Assay (Caov3 Cell Line)
Upon treatment, Coav-3 cells were incubated for 10 min at RT with the CellTiter-Glo reagent (G7571, Promega). Measurement of the luminescence signal was performed on a microplate reader (Ensight, PerkinElmer).
Caov3 CTG Assay—Proliferation Assay

METTL3/14, sequence (Q86U44 whole entry): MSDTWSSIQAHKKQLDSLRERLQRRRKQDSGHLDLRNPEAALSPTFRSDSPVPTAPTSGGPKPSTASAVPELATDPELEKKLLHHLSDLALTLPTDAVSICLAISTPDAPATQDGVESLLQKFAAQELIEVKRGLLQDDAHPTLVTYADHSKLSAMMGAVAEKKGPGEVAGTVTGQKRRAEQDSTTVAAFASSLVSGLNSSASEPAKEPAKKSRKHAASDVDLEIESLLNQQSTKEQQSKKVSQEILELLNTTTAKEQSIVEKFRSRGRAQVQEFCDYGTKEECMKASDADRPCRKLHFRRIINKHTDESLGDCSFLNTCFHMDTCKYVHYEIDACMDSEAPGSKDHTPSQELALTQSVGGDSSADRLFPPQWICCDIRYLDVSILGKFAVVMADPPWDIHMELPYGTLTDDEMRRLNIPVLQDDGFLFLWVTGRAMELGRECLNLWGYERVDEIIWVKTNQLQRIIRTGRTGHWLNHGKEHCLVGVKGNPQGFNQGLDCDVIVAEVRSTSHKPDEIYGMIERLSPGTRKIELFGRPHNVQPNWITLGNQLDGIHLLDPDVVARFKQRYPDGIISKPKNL
METTL3/14, sequence (Q9HCE5 whole entry partner): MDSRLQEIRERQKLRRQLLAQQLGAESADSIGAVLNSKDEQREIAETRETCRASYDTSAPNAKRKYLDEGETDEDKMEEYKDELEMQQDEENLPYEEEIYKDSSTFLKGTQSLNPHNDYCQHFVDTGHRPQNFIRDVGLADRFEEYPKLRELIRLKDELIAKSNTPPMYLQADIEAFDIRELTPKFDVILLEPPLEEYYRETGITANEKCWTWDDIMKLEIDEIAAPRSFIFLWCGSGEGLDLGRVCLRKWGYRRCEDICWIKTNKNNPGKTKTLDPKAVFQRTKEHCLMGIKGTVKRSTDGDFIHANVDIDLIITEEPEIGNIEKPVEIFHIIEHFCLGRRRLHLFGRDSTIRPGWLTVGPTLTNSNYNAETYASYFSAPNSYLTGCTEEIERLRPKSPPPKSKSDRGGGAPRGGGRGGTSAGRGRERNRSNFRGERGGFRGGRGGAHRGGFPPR

On to `O=C(NCc1cc2[nH]c(CNCC3CCC3)cc2cc1F)c1cc(=O)n2ccccc2n1` [Compound 41, N-[[2-[(cyclobutylmethylamino)methyl]-5-fluoro-1H-indol-6-yl]methyl]-4-oxo-pyrido[1,2-a]pyrimidine-2-carboxamide], for which the IC50 with KASUMI-1 cells is 309 nM; against METTL3/14 it was 6.1 nM; with Caov-3 cells, 192 nM.

For the compound `O=C(NCc1ccc2cc(CN3CC4(CCC4)C3)[nH]c2c1)c1cc(=O)n2ccccc2n1` [Compound 67, N-[[2-(2-azaspiro[3.3]heptanean-2-ylmethyl)-1H-indol-6-yl]methyl]-4-oxo-pyrido[1,2-a]pyrimidine-2-carboxamide], the IC50 in the assay with KASUMI-1 cells came to 1720 nM; against METTL3/14, 6.1 nM; in the assay on Caov-3 cells it was 482 nM.

Consider `O=C(NCc1ccc2cc(CNCC34CCC(C3)C4)[nH]c2c1)c1cc(=O)n2ccccc2n1` [Compound 76, N-[(2-{[({bicyclo[2.1.1]hexan-1-yl}methyl)amino]methyl}-1H-indol-6-yl)methyl]-4-oxo-4H-pyrido[1,2-a]pyrimidine-2-carboxamide], for which the IC50 turned out to be 698 nM in the assay on KASUMI-1 cells, 6.1 nM against METTL3/14 and 242 nM with Caov-3 cells.

Consider `CC12CC(CNCc3cc4ccc(CNC(=O)c5cc(=O)n6ccccc6n5)cc4[nH]3)(C1)C2` [Compound 77, N-[(2-{[({3-methylbicyclo[1.1.1]pentan-1-yl}methyl)amino]methyl}-1H-indol-6-yl)methyl]-4-oxo-4H-pyrido[1,2-a]pyrimidine-2-carboxamide], for which the results for the IC50 in the assay on KASUMI-1 cells, at METTL3/14 and in the assay with Caov-3 cells were 1760 nM, 6.1 nM and 701 nM, respectively.

For the compound `O=C(NCc1ccc2cc(CN3CC4(CCCC4)C3)[nH]c2c1)c1cc(=O)n2ccccc2n1` [Compound 81, N-{[2-({2-azaspiro[3.4]octan-2-yl}methyl)-1H-indol-6-yl]methyl}-4-oxo-4H-pyrido[1,2-a]pyrimidine-2-carboxamide], the IC50 was determined as 1030 nM in the assay on KASUMI-1 cells, 6.1 nM at METTL3/14 and 564 nM with Caov-3 cells.

Consider `O=C(NCc1ccc2cc(CN3CC4(CCCCC4)C3)[nH]c2c1)c1cc(=O)n2ccccc2n1` [Compound 90, N-{[2-({2-azaspiro[3.5]nonan-2-yl}methyl)-1H-indol-6-yl]methyl}-4-oxo-4H-pyrido[1,2-a]pyrimidine-2-carboxamide], for which the IC50 is 1250 nM with KASUMI-1 cells, 6.1 nM on METTL3/14 and 602 nM in the assay on Caov-3 cells.

For the compound `CC1(C)CCN(Cc2cc3ccc(CNC(=O)c4cc(=O)n5ccccc5n4)cc3[nH]2)C1` [Compound 92, N-({2-[(3,3-dimethylpyrrolidin-1-yl)methyl]-1H-indol-6-yl}methyl)-4-oxo-4H-pyrido[1,2-a]pyrimidine-2-carboxamide], the IC50 in the assay with KASUMI-1 cells is 1610 nM; against METTL3/14, 6.1 nM; in the assay on Caov-3 cells, 598 nM.

For `O=C(NCc1ccc2cc(CN3CC4(CC(F)C4)C3)[nH]c2c1)c1cc(=O)n2ccccc2n1` [Compound 93, N-{[2-({6-fluoro-2-azaspiro[3.3]heptanean-2-yl}methyl)-1H-indol-6-yl]methyl}-4-oxo-4H-pyrido[1,2-a]pyrimidine-2-carboxamide], the values for the IC50 in the assay with KASUMI-1 cells, on METTL3/14 and in the assay on Caov-3 cells were 1330 nM, 6.1 nM and 453 nM, respectively.

On to `O=C(NCc1ccc2cc(CN3CC4(C3)CC(F)(F)C4)[nH]c2c1)c1cc(=O)n2ccccc2n1` [Compound 94, N-{[2-({6,6-difluoro-2-azaspiro[3.3]heptanean-2-yl}methyl)-1H-indol-6-yl]methyl}-4-oxo-4H-pyrido[1,2-a]pyrimidine-2-carboxamide], for which the IC50 in the assay with KASUMI-1 cells is 2240 nM; against METTL3/14, 6.1 nM; in the assay on Caov-3 cells it was 681 nM.

For the compound `O=C(NCc1ccc2cc(CN3CC(C4CCC4)C3)[nH]c2c1)c1cc(=O)n2ccccc2n1` [Compound 95, N-({2-[(3-cyclobutylazetidin-1-yl)methyl]-1H-indol-6-yl}methyl)-4-oxo-4H-pyrido[1,2-a]pyrimidine-2-carboxamide], the concentration for half-maximal inhibition (IC50) stood at 3190 nM in the assay with KASUMI-1 cells, 6.1 nM against METTL3/14 and 960 nM in the assay on Caov-3 cells.

Regarding `CCC1(CC)CN(Cc2cc3ccc(CNC(=O)c4cc(=O)n5ccccc5n4)cc3[nH]2)C1` [Compound 102, N-({2-[(3,3-diethylazetidin-1-yl)methyl]-1H-indol-6-yl}methyl)-4-oxo-4H-pyrido[1,2-a]pyrimidine-2-carboxamide], the IC50 came out at 525 nM with KASUMI-1 cells, 6.1 nM against METTL3/14 and 230 nM in the assay with Caov-3 cells.

For the compound `O=C(NCc1ccc2cc(CN3CCC4(CCC4)C3)[nH]c2c1)c1cc(=O)n2ccccc2n1` [Compound 104, N-{[2-({6-azaspiro[3.4]octan-6-yl}methyl)-1H-indol-6-yl]methyl}-4-oxo-4H-pyrido[1,2-a]pyrimidine-2-carboxamide], the 50% inhibitory concentration (IC50) in the assay on KASUMI-1 cells came to 661 nM; against METTL3/14 it was 6.1 nM; in the assay on Caov-3 cells, 237 nM.

Regarding `O=C(NCc1ccc2cc(CN3CC4CCCC4C3)[nH]c2c1)c1cc(=O)n2ccccc2n1` (stereo not drawn) [Compound 106, N-{[2-({octahydrocyclopenta[c]pyrrol-2-yl}methyl)-1H-indol-6-yl]methyl}-4-oxo-4H-pyrido[1,2-a]pyrimidine-2-carboxamide], the half-maximal inhibitory concentration (IC50) in the assay with KASUMI-1 cells came to 1830 nM; on METTL3/14 it was 6.1 nM; in the assay on Caov-3 cells, 911 nM.

For `O=C(NCc1ccc2cc(CNCC3CC34CC4)[nH]c2c1)c1cc(=O)n2ccccc2n1` (stereo not drawn) [Compound 109, 4-oxo-N-[(2-{[({spiro[2.2]pentan-1-yl}methyl)amino]methyl}-1H-indol-6-yl)methyl]-4H-pyrido[1,2-a]pyrimidine-2-carboxamide], the results for the IC50 in the assay on KASUMI-1 cells, at METTL3/14 and in the assay with Caov-3 cells were 1470 nM, 6.1 nM and 608 nM, respectively.

For the compound `O=C(NCc1ccc2cc(CNC3CC34CCC4)[nH]c2c1)c1cc(=O)n2ccccc2n1` (stereo not drawn) [Compound 110, 4-oxo-N-({2-[({spiro[2.3]hexan-1-yl}amino)methyl]-1H-indol-6-yl}methyl)-4H-pyrido[1,2-a]pyrimidine-2-carboxamide], the IC50 is 1140 nM in the assay with KASUMI-1 cells, 6.1 nM on METTL3/14 and 412 nM in the assay with Caov-3 cells.

As to `O=C(NCc1ccc2cc(CN3CCC4(CCCC4)C3)[nH]c2c1)c1cc(=O)n2ccccc2n1` [Compound 113, N-{[2-({2-azaspiro[4.4]nonan-2-yl}methyl)-1H-indol-6-yl]methyl}-4-oxo-4H-pyrido[1,2-a]pyrimidine-2-carboxamide], the IC50 is 1650 nM in the assay with KASUMI-1 cells, 6.1 nM against METTL3/14 and 575 nM in the assay with Caov-3 cells.

Regarding `CC1(CNCc2cc3ccc(CNC(=O)c4cc(=O)n5ccccc5n4)cc3[nH]2)CCC1` [Compound 117, N-{[2-({[(1-methylcyclobutyl)methyl]amino}methyl)-1H-indol-6-yl]methyl}-4-oxo-4H-pyrido[1,2-a]pyrimidine-2-carboxamide], the IC50 turned out to be 1730 nM in the assay on KASUMI-1 cells, 6.1 nM at METTL3/14 and 502 nM with Caov-3 cells.

Regarding `CC(NCc1cc2ccc(CNC(=O)c3cc(=O)n4ccccc4n3)cc2[nH]1)C12CC(F)(C1)C2` (stereo not drawn) [Compound 120, N-[(2-{[(1-{3-fluorobicyclo[1.1.1]pentan-1-yl}ethyl)amino]methyl}-1H-indol-6-yl)methyl]-4-oxo-4H-pyrido[1,2-a]pyrimidine-2-carboxamide], the IC50 in the assay with KASUMI-1 cells was 447 nM; on METTL3/14 it was 6.1 nM; in the assay with Caov-3 cells, 203 nM.

On to `c1cc(-c2cn(Cc3ccc4cc(CN5CC6(CCC6)C5)[nH]c4c3)nn2)c2cn[nH]c2c1` [Compound 122, 4-(1-{[2-({2-azaspiro[3.3]heptanean-2-yl}methyl)-1H-indol-6-yl]methyl}-1H-1,2,3-triazol-4-yl)-1H-indazole], for which the IC50 with KASUMI-1 cells came to 1100 nM; at METTL3/14 it was 6.1 nM; in the assay with Caov-3 cells, 525 nM.

For the compound `CC12CC(CNCc3cc4cnc(CNC(=O)c5cc(=O)n6ccccc6n5)cc4[nH]3)(C1)C2` [Compound 129, N-[(2-{[({3-methylbicyclo[1.1.1]pentan-1-yl}methyl)amino]methyl}-1H-pyrrolo[3,2-c]pyridin-6-yl)methyl]-4-oxo-4H-pyrido[1,2-a]pyrimidine-2-carboxamide], the values for the IC50 with KASUMI-1 cells, at METTL3/14 and with Caov-3 cells were 2900 nM, 6.1 nM and 699 nM, respectively.

On to `O=C(NCc1cc2[nH]c(CNCC3CCC3)cc2cn1)c1cc(=O)n2ccccc2n1` [Compound 130, N-[(2-{[(cyclobutylmethyl)amino]methyl}-1H-pyrrolo[3,2-c]pyridin-6-yl)methyl]-4-oxo-4H-pyrido[1,2-a]pyrimidine-2-carboxamide], for which the results for the half-inhibitory concentration (IC50) with KASUMI-1 cells, against METTL3/14 and with Caov-3 cells were 3160 nM, 6.1 nM and 457 nM, respectively.

Regarding `O=C(NCc1cc2[nH]c(CNCC34CC(C3)C4)cc2cn1)c1cc(=O)n2ccccc2n1` [Compound 131, N-[(2-{[({bicyclo[1.1.1]pentan-1-yl}methyl)amino]methyl}-1H-pyrrolo[3,2-c]pyridin-6-yl)methyl]-4-oxo-4H-pyrido[1,2-a]pyrimidine-2-carboxamide], the figures for the IC50 with KASUMI-1 cells, at METTL3/14 and in the assay with Caov-3 cells were 1140 nM, 6.1 nM and 237 nM, respectively.

Consider `O=C(NCc1cc2[nH]c(CNCC34CC(F)(C3)C4)cc2cn1)c1cc(=O)n2ccccc2n1` [Compound 132, N-[(2-{[({3-fluorobicyclo[1.1.1]pentan-1-yl}methyl)amino]methyl}-1H-pyrrolo[3,2-c]pyridin-6-yl)methyl]-4-oxo-4H-pyrido[1,2-a]pyrimidine-2-carboxamide], for which the IC50 in the assay on KASUMI-1 cells stood at 785 nM; on METTL3/14 it was 6.1 nM; with Caov-3 cells, 268 nM.

By IC50 is commonly meant the concentration needed to halve the response being measured.
